Key:
Rattus norvegicus [1] = assay: Hypocholesteremic activity in Sprague-Dawley rat assessed as change in serum cholesterol level at 25 mg/kg, po administered through intubation tube daily for 7 days measured 24 hrs post last dose relative to vehicle-treated control; format: functional
Rattus norvegicus [2] = assay: Estrogenic activity in ovariectomized female Sprague-Dawley rat assessed as change in uterus weight measured as micrograms of […]-estradiol that produce an estrogenic response equivalent to compound at 25 mg/kg, po administered through intubation tube daily for 7 days; format: ADME, organism-based; set-up: dose 25 mg/kg, route oral; conditions: in vivo, 168 h

O=C(c1ccc2ccccc2c1)C(c1ccccc1)c1ccccn1 (configuration not stated) showed an Activity (Rattus norvegicus [1]) of 0%.

In the case of O=C(c1ccccc1Cl)C(c1ccccc1)c1ccccn1 (configuration not stated), the estradiol equivalent (Rattus norvegicus [2]) was 0.8 µg and the Activity (Rattus norvegicus [1]) was -56.9%.

O=C(c1ccccc1)C(c1ccccc1)c1ccccn1 (configuration not stated) showed an Activity (Rattus norvegicus [1]) of 2.5%.

O=C(c1ccc2c(c1)OCO2)C(c1ccccc1)c1ccccn1 (configuration not stated) showed an Activity (Rattus norvegicus [1]) of 6.3%.

In the case of Cc1ccccc1C(=O)C(c1ccccc1)c1ccccn1 (configuration not stated), the estradiol equivalent (Rattus norvegicus [2]) was 0.82 µg and the Activity (Rattus norvegicus [1]) was -64.9%.

With O=C(c1ccccc1Br)C(c1ccccc1)c1ccccn1 (configuration not stated) the estradiol equivalent (Rattus norvegicus [2]) was 0.87 µg and the Activity (Rattus norvegicus [1]) was -54.1%.

COc1ccc(C(=O)C(c2ccccc2)c2ccccn2)cc1Br (configuration not stated) gave an Activity (Rattus norvegicus [1]) of 11.3%.

CC(C)(C)c1ccc(C(=O)C(c2ccccc2)c2ccccn2)cc1 (configuration not stated) gave an Activity (Rattus norvegicus [1]) of 0%.

In the case of O=C(c1ccc(Cl)cc1)C(c1ccccc1)c1ccccn1 (configuration not stated), the Activity (Rattus norvegicus [1]) was -3.5%.

Cc1ccc(C(=O)C(c2ccccc2)c2ccccn2)cc1 (configuration not stated) was tested, and the Activity (Rattus norvegicus [1]) was 1.5%.

O=C(c1ccccc1I)C(c1ccccc1)c1ccccn1 (configuration not stated) gave an estradiol equivalent (Rattus norvegicus [2]) of 0.7 µg and an Activity (Rattus norvegicus [1]) of -77.1%.

O=C(c1cccc(Cl)c1)C(c1ccccc1)c1ccccn1 (configuration not stated) gave an Activity (Rattus norvegicus [1]) of 0%.

With O=C(c1ccc(Br)cc1)C(c1ccccc1)c1ccccn1 (configuration not stated) the Activity (Rattus norvegicus [1]) was -22.8%.

For O=C(c1ccccc1Oc1ccccc1)C(c1ccccc1)c1ccccn1 (configuration not stated), the Activity (Rattus norvegicus [1]) was -15%.

O=C(c1cccc(Br)c1)C(c1ccccc1)c1ccccn1 (configuration not stated) was tested, and the Activity (Rattus norvegicus [1]) was 6.7%.

For COc1ccc(C(=O)C(c2ccccc2)c2ccccn2)cc1 (configuration not stated), the Activity (Rattus norvegicus [1]) was -15.7%.

Compound COc1ccc(C(=O)C(c2ccccc2)c2ccccn2)cc1OC (configuration not stated) has an Activity (Rattus norvegicus [1]) of 6.3%.

Work on O=C(c1ccc(OCc2ccccc2)cc1)C(c1ccccc1)c1ccccn1 (configuration not stated) yielded an Activity (Rattus norvegicus [1]) of 9.3%.

In the case of CC(C)(C)c1ccccc1C(=O)C(c1ccccc1)c1ccccn1 (configuration not stated), the estradiol equivalent (Rattus norvegicus [2]) was 0.29 µg and the Activity (Rattus norvegicus [1]) was -42%.

With O=C(c1ccc(F)cc1)C(c1ccccc1)c1ccccn1 (configuration not stated) the Activity (Rattus norvegicus [1]) was -1.3%.

O=C(c1cccc(OCc2ccccc2)c1)C(c1ccccc1)c1ccccn1 (configuration not stated) showed an Activity (Rattus norvegicus [1]) of 12.1%.

Work on Cc1cccc(C(=O)C(c2ccccc2)c2ccccn2)c1 (configuration not stated) yielded an Activity (Rattus norvegicus [1]) of 13.2%.

Work on O=C(c1ccccc1F)C(c1ccccc1)c1ccccn1 (configuration not stated) yielded an estradiol equivalent (Rattus norvegicus [2]) of 0.45 µg and an Activity (Rattus norvegicus [1]) of -30%.

O=C(c1cc(-c2ccccc2)nc2cc(Cl)ccc12)C(c1ccccc1)c1ccccn1 (configuration not stated) gave an Activity (Rattus norvegicus [1]) of 3.8%.

O=C(c1ccc(I)cc1)C(c1ccccc1)c1ccccn1 (configuration not stated) was tested, and the Activity (Rattus norvegicus [1]) was 0%.

O=C(c1cccnc1)C(c1ccccc1)c1ccccn1 (configuration not stated) was tested, and the Activity (Rattus norvegicus [1]) was -2.1%.

Reference: ChEMBL document CHEMBL3272235, “alpha-(2-Pyridine)benzyl aryl ketones as potential hypocholesteremic agents” (J Med Chem, 1978)
